Values quoted from earlier work as cited in patent EP0279778B1, “New strain belonging to genus Thermus, new beta-galactosidase and process for producing same” (Research Development Corporation of Japan, priority 1987, dated 1988).

What was measured:
[1] = test system: Bacillus stearothermophilus β-galactosidase (Enzyme of Precedent 5); conditions: 10mM
[2] = test system: Thermus strain 4-1A β-galactosidase (Enzyme of Precedent 3); conditions: 56mM

SMILES | Inhibition by reaction product [1] | Inhibition by reaction product [2]
OC[C@H]1OC(O)[C@H](O)[C@@H](O)[C@H]1O (stereo partly shown) [galactose] | 71% | 52%
OC[C@H]1OC(O)[C@H](O)[C@@H](O)[C@@H]1O (stereo partly shown) [glucose] | 20% | 63%
